Results from patent US8697385B1, “Protein controlling synthesis of collagen and associated methods” (Florida State University Research Foundation, Inc., priority 2009, dated 2014).

Key:
[1] = test system: scleroderma fibroblasts; assay: Apoptosis of primary scleroderma fibroblasts; format: cell-based; conditions: ML-7 did not have an effect
From the text: To assess the role of nonmuscle myosin in collagen synthesis, we disrupted nonmuscle myosin filaments in two different cell types: primary human lung fibroblasts and primary scleroderma skin fibroblasts. These cells are responsible for lung and skin fibrosis. […] To assess the effect of ML-7 on collagen protein synthesis and secretion, we analyzed the levels of collagen α1(I) and α2(I) polypeptides in the intracellularly space and in the medium using Western blot analysis and chain-specific antibodies.^12,15,31-33 ML-7 treatment profoundly affected the secretion of type I collagen, but the effect differed in the two types of primary fibroblasts. […] To assess if the secreted α1(I) polypeptides had been secreted as disulfide-bonded homotrimers, we performed Western blot analysis under nonreducing conditions (FIG. 3d). […] However, since α2(I) polypeptide was absent in the cell medium of ML-7-treated cells, the bands must represent disulfide-bonded collagen α1(I) chains. The α2(I) antibody could not recognize the polypeptide under nonreducing conditions, so we could not directly test its presence in S—S bonded collagen. Since there are reports that ML-7 can cause apoptosis of epithelial cells, we tested if ML-7 caused apoptosis of the primary fibroblasts. […] Therefore, we concluded that increased apoptosis is not responsible for the observed effects of ML-7. […]

[2] = test system: calnexin; assay: Immunostaining for the ER marker protein calnexin; format: cell-based; conditions: ML-7-treated cells vs control cells
Protocol: Protein concentration was estimated by the Bradford assay, with bovine serum albumin as standard.^51 Western blot analyses of cellular proteins were performed using 50 μg of protein. For Western blot analysis of secreted proteins, equal numbers of cells were seeded, serum-free medium was added to the cells, and incubation continued for 3 h. The medium was collected, and an aliquot was analyzed directly by Western blot analysis. Use of serum free medium in collecting secreted proteins is essential because fetal calf serum contains substantial amounts of collagen and fibronectin.^15,31 For immunostaining, cells were seeded onto glass coverslips. […]
To assess the role of nonmuscle myosin in collagen synthesis, we disrupted nonmuscle myosin filaments in two different cell types: primary human lung fibroblasts and primary scleroderma skin fibroblasts. […] To assess the effect of ML-7 on collagen protein synthesis and secretion, we analyzed the levels of collagen α1(I) and α2(I) polypeptides in the intracellularly space and in the medium using Western blot analysis and chain-specific antibodies.^12,15,31-33 ML-7 treatment profoundly affected the secretion of type I collagen, but the effect differed in the two types of primary fibroblasts. […]

O=S(=O)(c1cccc2c(I)cccc12)N1CCCNCC1 [ML-7]
percentage of apoptotic cells [1]: 0.3% | calnexin immunostaining (organization of the ER) [2]: did not show a difference
